These results are taken from patent US7683179B2, “Lercanidipine salts” (Recordati Ireland Limited, priority 2004, dated 2010).

“Also recorded” adds a separate entry of the source. Where a name gives a salt, the structure may show the parent alone. Read-outs that look alike come from different tables or passages of the source.

Common to all, as to type: physicochemical
The nature of series [1]: Stability of crystalline salts (statement, no method).
A short description of series [2]: Solubility by UV-Visible spectroscopy in aqueous 0.1 M HCl (pH 1) at 22° C. The note with it: for solubility: pH 1; for solubility at 24 h: 22 °C, pH 1, simulated gastric fluid, thermodynamic from solid. As for the experimental part: The solubility of crystalline lercanidipine besylate, napadisylate and hydrochloride and amorphous lercanidipine besylate was evaluated by UV-Visible spectroscopy in aqueous 0.1 M HCl (pH 1) at 22° C. Suspensions of approximately 0.3 mg/ml of the respective compounds were prepared in an aqueous 0.1 M HCl and equilibrated by shaking for 24 hours. Following equilibration, the samples were filtered (0.1 μm filter) and the concentration was determined photometrically using Perkin Elmer Lambda 16 (Überlingen, Germany). Reference measurements were performed with 20% acetonitrile as a co-solvent.

A short description of series [3]: Hygroscopicity by DVS analysis (water absorption analyzer). The note with it: humidity cycling between 0 and 95% RH at 25° C. How it is done:
The hygroscopicity of both amorphous and crystalline lercanidipine salts was determined by DVS analysis using a water absorption analyzer (Surface Measurement System Ltd., Marion, Buckinghamshire, UK). The analysis were carried out according to the following conditions: 10-15 mg of sample were placed on a quartz or platinum holder, the holder was placed in-turn on a microbalance, and the sample underwent humidity cycling between 0 and 95% relative humidity (RH) at 25° C. (50-95-0-95-0-50% at a rate of 5% RH/hr).

For the molecule `COC(=O)C1=C(C)NC(C)=C(C(=O)OC(C)(C)CN(C)CCC(c2ccccc2)c2ccccc2)C1c1cccc([N+](=O)[O-])c1.COC(=O)C1=C(C)NC(C)=C(C(=O)OC(C)(C)CN(C)CCC(c2ccccc2)c2ccccc2)C1c1cccc([N+](=O)[O-])c1.O=S(=O)(O)c1cccc2c(S(=O)(=O)O)cccc12` (stereo not shown) [Crystalline napadisylate, lercanidipine napadisylate], in series [1], the stability entry is reported as “good stability”. In series [2], the “solubility compared with other salt forms” value is given as “lower solubility than the amorphous salt”, the “solubility in 0.1 M HCl at 22° C.” value is listed as “about 3.5 mg/L” and the solubility was 3.5 µg/mL. Moreover, the Hygroscopicity entry in series [3] was “hygroscopic”.
As to “lercanidipine besylate [Crystalline besylate]”, the stability entry in series [1] was “good stability”. Also, in series [2] (0.1 M / 0.1 N HCl, comparison in words), the “solubility compared with other salt forms” value was “lower solubility than the amorphous salt; also recorded: substantially more soluble than either crystalline hydrochloride or napadisylate”. Moreover, in series [2] (0.1 M HCl, 22° C.), the “solubility in 0.1 M HCl at 22° C.” value is “about 87 mg/L”. Also, the Hygroscopicity result in series [3] was “non-hygroscopic”.
For the molecule `COC(=O)C1=C(C)NC(C)=C(C(=O)OC(C)(C)CN(C)CCC(c2ccccc2)c2ccccc2)C1c1cccc([N+](=O)[O-])c1` (stereo not shown) [Crystalline hydrochloride, lercanidipine hydrochloride, reference compound], the values for the solubility at 24 h in series [2] (Solubility) and in series [2] (solubility in 0.1 N HCl) were 10 µg/mL and roughly 10 µg/mL, respectively.
For the molecule “lercanidipine besylate [Amorphous besylate]”, the solubility in series [2] stood at 155 µg/mL. Further, in series [3], the Hygroscopicity entry is on record as “non-hygroscopic”.

The term solubility denotes the dissolved amount per volume that the medium holds. A high value points to much dissolved substance.
